Experimental data reported in ChEMBL document CHEMBL5321224, “Antimicrobial peptides: Structure, mechanism, and modification” (2023).
Activity calls are given as the source filed them. The rule behind the calls is not given here. Non-standard residues stand in square brackets, D forms with d. Residues, ends and D or L forms follow the SMILES beside them. βAla = NCCC(=O)O

Columns and labels:
Assay type in all cases: functional
[1] = test system: Escherichia coli; assay: Antimicrobial activity against Escherichia coli assessed as reduction of microbial growth incubated overnight
[2] = test system: Pseudomonas aeruginosa; assay: Antimicrobial activity against Pseudomonas aeruginosa assessed as reduction of microbial growth incubated overnight
[3] = test system: Staphylococcus aureus; assay: Antimicrobial activity against Staphylococcus aureus assessed as reduction of microbial growth incubated overnight
[4] = test system: Escherichia coli; assay: Antimicrobial activity against Escherichia coli assessed as reduction of microbial growth incubated for 6 to 9 hr by macrodilution method; details: time 6-9 hrs
[5] = test system: Pseudomonas aeruginosa; assay: Antimicrobial activity against Pseudomonas aeruginosa assessed as reduction of microbial growth incubated for 6 to 9 hr by macrodilution method; details: time 6-9 hrs
[6] = test system: Staphylococcus aureus; assay: Antimicrobial activity against Staphylococcus aureus assessed as reduction of microbial growth incubated for 6 to 9 hr by macrodilution method; details: time 6-9 hrs
[7] = test system: Escherichia coli; assay: Antimicrobial activity against Escherichia coli assessed as reduction of microbial growth
[8] = test system: Pseudomonas aeruginosa; assay: Antimicrobial activity against Pseudomonas aeruginosa assessed as reduction of microbial growth
[9] = test system: Staphylococcus aureus; assay: Antimicrobial activity against Staphylococcus aureus assessed as reduction of microbial growth
[10] = test system: Escherichia coli; assay: Antimicrobial activity against Escherichia coli assessed as reduction of microbial growth incubated for 18 to 24 hrs by microdilution method; details: time 18-24 hrs
[11] = test system: Pseudomonas aeruginosa; assay: Antimicrobial activity against Pseudomonas aeruginosa assessed as reduction of microbial growth incubated for 18 to 24 hrs by microdilution method; details: time 18-24 hrs
[12] = test system: Staphylococcus aureus; assay: Antimicrobial activity against Staphylococcus aureus assessed as reduction of microbial growth incubated for 18 to 24 hrs by microdilution method; details: time 18-24 hrs

Compound `CC[C@H](C)[C@H](NC(=O)CNC(=O)[C@@H]1CCCN1C(=O)CNC(=O)[C@H](C)NC(=O)[C@H](CCCCN)NC(=O)[C@@H](NC(=O)[C@@H](NC(=O)CNC(=O)[C@H](CC(=O)O)NC(=O)[C@H](CCCNC(=N)N)NC(=O)[C@@H](NC(=O)[C@H](CC(N)=O)NC(=O)[C@H](CCC(N)=O)NC(=O)CNC(=O)[C@@H](NC(=O)[C@H](CCCCN)NC(=O)[C@H](CCC(=O)O)NC(=O)[C@@H](NC(=O)[C@H](CCCCN)NC(=O)[C@H](CCCCN)NC(=O)[C@H](Cc1ccccc1)NC(=O)[C@H](CC(C)C)NC(=O)[C@H](CCCCN)NC(=O)[C@H](Cc1c[nH]c2ccccc12)NC(=O)[C@@H](N)CCCCN)[C@@H](C)CC)C(C)C)[C@@H](C)CC)[C@@H](C)CC)[C@@H](C)CC)C(=O)NCC(=O)N[C@@H](C)C(=O)N[C@H](C(=O)N[C@@H](CC(C)C)C(=O)N[C@@H](CCCCN)C(=O)N[C@H](C(=O)N[C@@H](CC(C)C)C(=O)N[C@H](C(=O)N[C@H](C(=O)NCC(=O)N[C@@H](CC(C)C)C(=O)O)[C@@H](C)O)[C@@H](C)O)C(C)C)C(C)C` has an LD [1] of 0.3 µM, an LD [2] of 1 µM and an LD [3] of 6 µM.

Compound `CC[C@@H](C)[C@H](NC(=O)[C@@H](NC(=O)CNC(=O)[C@H](CC(=O)O)NC(=O)[C@H](CCCNC(=N)N)NC(=O)[C@@H](NC(=O)[C@H](CC(N)=O)NC(=O)[C@H](CCC(N)=O)NC(=O)CNC(=O)[C@@H](NC(=O)[C@H](CCCCN)NC(=O)[C@H](CCC(=O)O)NC(=O)[C@@H](NC(=O)[C@H](CCCCN)NC(=O)[C@H](CCCCN)NC(=O)[C@H](Cc1ccccc1)NC(=O)[C@H](CC(C)C)NC(=O)[C@H](CCCCN)NC(=O)[C@H](Cc1c[nH]c2ccccc12)NC(=O)[C@@H](N)CCCCN)[C@@H](C)CC)C(C)C)[C@@H](C)CC)[C@@H](C)CC)C(=O)N[C@@H](CCCCN)C(=O)N[C@@H](C)C(=O)NCC(=O)N1CCC[C@H]1C(=O)N[C@@H](C)C(=O)N[C@H](C(=O)N[C@@H](C)C(=O)N[C@H](C(=O)N[C@H](C(=O)NCC(=O)N[C@@H](CCC(N)=O)C(=O)N[C@@H](C)C(=O)N[C@H](C(=O)N[C@@H](CCC(N)=O)C(=O)N[C@H](C(=O)N[C@@H](C)C(=O)N[C@@H](CCCCN)C(=O)O)[C@@H](C)CC)[C@@H](C)O)C(C)C)C(C)C)C(C)C` has an LD [1] of 0.2 µM, an LD [2] of 2 µM and an LD [3] greater than 200 µM.

`CC[C@H](C)[C@H](NC(=O)CN)C(=O)NCC(=O)N[C@@H](C)C(=O)N[C@H](C(=O)N[C@@H](CC(C)C)C(=O)N[C@@H](CCCCN)C(=O)N[C@H](C(=O)N[C@@H](CC(C)C)C(=O)N[C@H](C(=O)N[C@H](C(=O)NCC(=O)N[C@@H](CC(C)C)C(=O)N[C@@H](CCCCN)C(=O)N[C@@H](Cc1c[nH]c2ccccc12)C(=O)N[C@@H](CCCCN)C(=O)N[C@@H](CC(C)C)C(=O)N[C@@H](Cc1ccccc1)C(=O)N[C@@H](CCCCN)C(=O)N[C@@H](CCCCN)C(=O)N[C@H](C(=O)N[C@@H](CCC(=O)O)C(=O)N[C@@H](CCCCN)C(=O)N[C@H](C(=O)NCC(=O)N[C@@H](CCC(N)=O)C(=O)O)C(C)C)[C@@H](C)CC)[C@@H](C)O)[C@@H](C)O)C(C)C)C(C)C` gave an LD [1] of 1 µM, an LD [2] of 5 µM and an LD [3] of 5 µM.

In the case of `CC[C@H](C)[C@H](NC(=O)[C@H](CCCCN)NC(=O)[C@H](CCCCN)NC(=O)[C@H](Cc1ccccc1)NC(=O)[C@H](CC(C)C)NC(=O)[C@H](CCCCN)NC(=O)[C@H](Cc1c[nH]c2ccccc12)NC(=O)[C@@H](N)CCCCN)C(=O)N[C@@H](CCC(=O)O)C(=O)N[C@@H](CCCCN)C(=O)N[C@H](C(=O)NCC(=O)N[C@@H](CCC(N)=O)C(=O)NCC(=O)N[C@@H](C(=O)NCC(=O)N[C@@H](C)C(=O)N[C@H](C(=O)N[C@@H](CC(C)C)C(=O)N[C@@H](CCCCN)C(=O)N[C@H](C(=O)N[C@@H](CC(C)C)C(=O)N[C@H](C(=O)N[C@H](C(=O)NCC(=O)N[C@@H](CC(C)C)C(=O)O)[C@@H](C)O)[C@@H](C)O)C(C)C)C(C)C)[C@@H](C)CC)C(C)C`, the LD [1] is reported as 0.5 µM, the LD [2] is reported as 1 µM and the LD [3] is reported as 2 µM.

`CC[C@H](C)[C@H](NC(=O)CN)C(=O)NCC(=O)N[C@@H](CCCCN)C(=O)N[C@@H](Cc1ccccc1)C(=O)N[C@@H](CC(C)C)C(=O)N[C@@H](Cc1c[nH]cn1)C(=O)N[C@@H](CO)C(=O)N[C@H](C)C(=O)N[C@@H](CCCCN)C(=O)N[C@@H](CCCCN)C(=O)N[C@@H](Cc1ccccc1)C(=O)N[C@H](C)C(=O)N[C@@H](CCCCN)C(=O)N[C@@H](C)C(=O)N[C@@H](Cc1ccccc1)C(=O)N[C@H](C(=O)N[C@H](C)C(=O)N[C@@H](CCC(=O)O)C(=O)N[C@H](C(=O)N[C@@H](CCSC)C(=O)N[C@@H](CC(N)=O)C(=O)N[C@@H](CO)C(N)=O)[C@@H](C)CC)C(C)C` (H-GIGKFLHS[dA]KKF[dA]KAFV[dA]EIMNS-NH2) was tested, and the MIC [4] was greater than 100 µg/mL, the MIC [5] was greater than 100 µg/mL and the MIC [6] was greater than 100 µg/mL.

With `CC[C@H](C)[C@H](NC(=O)CNC(=O)CCN)C(=O)NCC(=O)N[C@@H](CCCCN)C(=O)N[C@@H](Cc1ccccc1)C(=O)N[C@@H](CC(C)C)C(=O)N[C@@H](Cc1c[nH]cn1)C(=O)N[C@@H](C)C(=O)N[C@@H](C)C(=O)N[C@@H](CCCCN)C(=O)N[C@@H](CCCCN)C(=O)N[C@@H](Cc1ccccc1)C(=O)N[C@@H](C)C(=O)N[C@@H](CCCCN)C(=O)N[C@@H](C)C(=O)N[C@@H](Cc1ccccc1)C(=O)N[C@H](C(=O)N[C@@H](C)C(=O)N[C@@H](CCC(=O)O)C(=O)N[C@H](C(=O)N[C@@H](CCSC)C(=O)N[C@@H](CC(N)=O)C(=O)N[C@@H](CO)C(N)=O)[C@@H](C)CC)C(C)C` (H-[βAla]GIGKFLHAAKKFAKAFVAEIMNS-NH2) the MIC [4] was 5 µg/mL, the MIC [5] was 50 µg/mL and the MIC [6] was 5 µg/mL.

`CC[C@H](C)[C@H](NC(=O)CN)C(=O)NCC(=O)N[C@@H](C)C(=O)N[C@H](C(=O)N[C@@H](CC(C)C)C(=O)N[C@@H](CCCCN)C(=O)N[C@H](C(=O)N[C@@H](CC(C)C)C(=O)N[C@H](C(=O)N[C@H](C(=O)NCC(=O)N[C@@H](CC(C)C)C(=O)N1CCC[C@H]1C(=O)N[C@@H](C)C(=O)N[C@@H](CC(C)C)C(=O)N[C@H](C(=O)N[C@@H](CO)C(=O)N[C@@H](Cc1c[nH]c2ccccc12)C(=O)N[C@H](C(=O)N[C@@H](CCCCN)C(=O)N[C@@H](CCCNC(=N)N)C(=O)N[C@@H](CCCCN)C(=O)N[C@@H](CCCNC(=N)N)C(=O)N[C@@H](CCC(N)=O)C(=O)N[C@@H](CCC(N)=O)C(N)=O)[C@@H](C)CC)[C@@H](C)CC)[C@@H](C)O)[C@@H](C)O)C(C)C)C(C)C` [MELITTIN] showed an LD [1] of 0.8 µM, an LD [2] of 3 µM and an LD [3] of 0.2 µM.

With Ac-GIGKFLHAAKKFAKAFVAEIMNS-NH2 the MIC [4] was 25 µg/mL, the MIC [5] was greater than 100 µg/mL and the MIC [6] was 25 µg/mL.

In the case of H-FLHSAKKFGKAFVGEIMNS-OH, the MIC [7] is reported as 200 µg/mL, the MIC [8] is reported as “inactive” and the MIC [9] is reported as “inactive”.

In the case of H-GIGKFLHAAKKFAKAFVAEIMNS-NH2, the MIC [4] is reported as 2.5 µg/mL, the MIC [5] is reported as 25 µg/mL and the MIC [6] is reported as 10 µg/mL.

H-GIGKFLHSAKKFGKAFVGEIMNS-NH2 showed an MIC [7] of 128 µg/mL, an MIC [8] of 256 µg/mL and an MIC [9] greater than 256 µg/mL.

With H-GIGKFLHSAKKFGKAFVGEIMNSKKKKKKKKKK-OH the MIC [10] was 50 µg/mL, the MIC [11] was 3.1 µg/mL and the MIC [12] was 3.1 µg/mL.

With H-KFLHSAKKFGKAFVGEIMNS-OH the MIC [7] was 20 µg/mL, the MIC [8] was “inactive” and the MIC [9] was “inactive”.

H-KKKKKKKKKKGIGKFLHSAKKFGKAFVGEIMNS-OH showed an MIC [10] of 6.25 µg/mL, an MIC [11] of 6.25 µg/mL and an MIC [12] of 12.5 µg/mL.

In the case of H-RRRRRRRRRRGIGKFLHSAKKFGKAFVGEIMNS-OH, the MIC [10] is reported as 3.12 µg/mL, the MIC [11] is reported as 6.25 µg/mL and the MIC [12] is reported as 25 µg/mL.
